Experimental data: ChEMBL document CHEMBL5226308, “Amide-Amine Replacement in Indole-2-carboxamides Yields Potent Mycobactericidal Agents with Improved Water Solubility” (ACS Med Chem Lett, 2021)
Converted amounts (≈) assume the structure as drawn. The source made the active and inactive calls. The calls are words filed in the database; no cut-off is given here.

What was measured:
[1] = Aqueous solubility of the compound in aqueous buffer at 100 uM incubated for 24 hrs under agitation condition by UV-Vis spectrophotometric analysis; format: physicochemical
[2] = test system: Mycolicibacterium smegmatis; assay: Disruption of proton motive force in Mycobacterium smegmatis spheroplasts assessed as disruption of proton gradient by measuring acidification of intracellular spaces within spheroplasts at 2XMIC90 measured after 30 mins by BCECF-AM dye based fluorescence analysis; format: functional, organism-based
[3] = Effective permeability coefficient of the compound at 500 uM incubated for 18 hrs under agitation condition by PAMPA assay; format: ADME; settings: for Papp at 18 h, 500 µM: PAMPA, read-out: Peff
[4] = test system: Mycobacterium tuberculosis; assay: Antimycobacterial activity against Mycobacterium tuberculosis H37Rv ATCC 27294 assessed as inhibition of bacterial growth incubated for 7 days by broth dilution method; format: functional; settings: H37Rv ATCC 27294, 168 h, time 7 day
[5] = test system: Mycobacterium tuberculosis; assay: Myco-bactericidal activity against Mycobacterium tuberculosis H37Rv ATCC 27294 assessed as inhibition of bacterial colony formation incubated for 7 days by agar plate method; format: functional; settings: H37Rv ATCC 27294, 168 h, time 7 day, read-out: MBC99.9
[6] = Cytotoxicity against African green monkey Vero E6 cells assessed as reduction in cell viability incubated for 48 hrs by MTS assay; format: toxicity, cell-based, Chlorocebus sabaeus, Vero C1008
[7] = Selectivity index, ratio of IC50 for cytotoxicity against African green monkey Vero E6 cells to MIC50 for antimycobacterial activity against Mycobacterium tuberculosis H37Rv ATCC 27294; format: toxicity, cell-based, Vero C1008; settings: read-out: Selectivity Index
[8] = Selectivity index, ratio of IC50 for cytotoxicity against African green monkey Vero E6 cells to MIC50 for antimycobacterial activity against Mycobacterium bovis BCG ATCC 35734; format: toxicity, cell-based, Vero C1008; settings: read-out: Selectivity Index
[9] = Half life in rat liver microsomes at 200 uM incubated for 5 mins followed by NADPH addition and measured for 45 mins by LC-MS/MS analysis; format: ADME, Microsome; settings: time 50 min
[10] = Ratio of MIC90 for antimycobacterial activity against Mycobacterium bovis BCG B16-1 harboring mmpL3 C1932G/F644L mutant to MIC90 for antimycobacterial activity against wild type Mycobacterium bovis BCG ATCC 35734; format: functional
[11] = Ratio of MIC90 for antimycobacterial activity against Mycobacterium bovis BCG B16-2 harboring mmpL3 C1932A/F644L mutant to MIC90 for antimycobacterial activity against wild type Mycobacterium bovis BCG ATCC 35734; format: functional
[12] = Ratio of MIC90 for antimycobacterial activity against Mycobacterium bovis BCG B33-1 harboring mmpL3 C1932G/F644L mutant to MIC90 for antimycobacterial activity against wild type Mycobacterium bovis BCG ATCC 35734; format: functional
[13] = Ratio of MIC90 for antimycobacterial activity against Mycobacterium bovis BCG B33-2 harboring mmpL3 C765G/F255L mutant to MIC90 for antimycobacterial activity against wild type Mycobacterium bovis BCG ATCC 35734; format: functional
[14] = Ratio of MIC90 for antimycobacterial activity against Mycobacterium bovis BCG B47-1 harboring mmpL3 C1932G/F644L mutant to MIC90 for antimycobacterial activity against wild type Mycobacterium bovis BCG ATCC 35734; format: functional
[15] = Ratio of MIC90 for antimycobacterial activity against Mycobacterium bovis BCG B47-2 harboring mmpL3 G2041A/V681I mutant to MIC90 for antimycobacterial activity against wild type Mycobacterium bovis BCG ATCC 35734; format: functional
[16] = Ratio of MIC90 for antimycobacterial activity against Mycobacterium bovis BCG B47-3 harboring mmpL3 T1930C/F644L mutant to MIC90 for antimycobacterial activity against wild type Mycobacterium bovis BCG ATCC 35734; format: functional
[17] = Ratio of MIC90 for antimycobacterial activity against Mycobacterium bovis BCG B47-4 harboring mmpL3 C1932G/F644L mutant to MIC90 for antimycobacterial activity against wild type Mycobacterium bovis BCG ATCC 35734; format: functional
[18] = test system: Mycolicibacterium smegmatis; assay: Disruption of proton motive force in Mycobacterium smegmatis spheroplasts assessed as disruption of proton gradient by measuring acidification of intracellular spaces within spheroplasts at 2 to 5 uM measured after 30 mins by BCECF-AM dye based fluorescence analysis; format: functional, organism-based; settings: dose 2-5 µM

With `O=C(NC1CCCCCCC1)c1cc2ccccc2s1` the solubility at 24 h, 100 µM [1] was 3.3 µM (≈ 0.949 µg/mL) and the Activity [2] was “inactive”.

For `O=C(NC1CCCCCCC1)c1cc2ccc(C(F)(F)F)cc2[nH]1`, the solubility at 24 h, 100 µM [1] was 2.2 µM (≈ 0.744 µg/mL), the Papp at 18 h, 500 µM [3] was 0.34 ×10⁻⁶ cm/s and the MIC50 [4] was 0.02 µM (≈ 0.00677 µg/mL). For the same molecule, the MIC90 [4] was 0.04 µM (≈ 0.0135 µg/mL), the MBC [5] was 0.08 µM (≈ 0.0271 µg/mL) and the IC50 at 48 h [6] was > 100 µM. For the same molecule, the selectivity ratio [7] was > 5000, the selectivity ratio [8] was > 5000 and the half-life at 200 µM [9] was 25.6 min. For the same molecule, the Ratio [10] was 5, the Ratio [11] was 5 and the Ratio [12] was 5. For the same molecule, the Ratio [13] was 5, the Ratio [14] was 5 and the Ratio [15] was 5. For the same molecule, the Ratio [16] was 5, the Ratio [17] was 5 and the Activity [2] was “inactive”.

Molecule `CC(C)NCC(O)COc1cccc2ccccc12` (stereo not given) [PROPRANOLOL] has a Papp at 18 h, 500 µM [3] of 11.9 ×10⁻⁶ cm/s.

For `O=C(NC1CCCCCCC1)c1cc2ccccc2[se]1`, the solubility at 24 h, 100 µM [1] was 3.7 µM (≈ 1.24 µg/mL) and the Activity [2] was “inactive”.

In the case of `Cc1c(CN2CCN(C)CC2)cc(-c2ccc(Cl)cc2)n1-c1ccc(Cl)cc1`, the Activity [2] is reported as “inactive”.

Work on `O=C(NC1CCCCCCC1)c1cc2ccccc2[nH]1` yielded a solubility at 24 h, 100 µM [1] of 2.4 µM (≈ 0.649 µg/mL).

`CC1(C)CCC(NC(=O)c2cc3c(F)cc(F)cc3[nH]2)CC1` showed an MIC50 [4] of 0.023 µM (≈ 0.00705 µg/mL).

For `c1ccc2[se]c(CNC3CCCCCCC3)cc2c1`, the solubility at 24 h, 100 µM [1] was 77.8 µM (≈ 24.9 µg/mL) and the Activity [2] was “inactive”.

For `Brc1ccc2cc(CNC3CCCCCCC3)[nH]c2c1`, the solubility at 24 h, 100 µM [1] was 35.4 µM (≈ 11.9 µg/mL) and the Papp at 18 h, 500 µM [3] was 13.4 ×10⁻⁶ cm/s.

In the case of `Cc1cc(C)c2cc(C(=O)NC3CCCCCCC3)[nH]c2c1`, the solubility at 24 h, 100 µM [1] is reported as 5.7 µM (≈ 1.7 µg/mL), the Peff ([3]; pampa, 18 h, 500 µM) is reported as 14 10^-6 cm/s and the MIC90 [4] is reported as 0.013 µM (≈ 0.00388 µg/mL).

`O=C(NC1CCC2(CCCCC2)CC1)c1cc2c(F)cc(F)cc2[nH]1` showed an MIC90 [4] of 0.003 µM (≈ 0.00104 µg/mL).

Work on `c1ccc2[nH]c(CNC3CCCCCCC3)cc2c1` yielded a solubility at 24 h, 100 µM [1] of 99.7 µM (≈ 25.6 µg/mL).

Work on `c1ccc2sc(CNC3CCCCCCC3)cc2c1` yielded a solubility at 24 h, 100 µM [1] of 73.5 µM (≈ 20.1 µg/mL), a Ratio [10] of 5 and a Ratio [11] of 5. For the same molecule, the Ratio [12] was 5, the Ratio [13] was 5 and the Ratio [14] was 5. For the same molecule, the Ratio [15] was 5, the Ratio [16] was 5 and the Ratio [17] was 5. For the same molecule, the Activity [2] was “inactive”.

Molecule `O=C(NC1C2CC3CC(C2)CC1C3)c1cc2cc(Cl)ccc2[nH]1` (stereo not given) has an MIC90 [4] of 0.47 µM (≈ 0.155 µg/mL).

`Cc1cc(C)c2cc(CNC3CCCCCCC3)[nH]c2c1` showed a solubility at 24 h, 100 µM [1] of 70.1 µM (≈ 19.9 µg/mL), a Papp at 18 h, 500 µM [3] of 18.4 ×10⁻⁶ cm/s and an MIC90 [4] of 0.31 µM (≈ 0.0882 µg/mL).

In the case of `N#CC(C#N)=NNc1cccc(Cl)c1`, the Activity [18] is reported as “Active”.

In the case of `O=C(NC1CCCCCCC1)c1cc2ccc(Br)cc2[nH]1`, the solubility at 24 h, 100 µM [1] is reported as 1.6 µM (≈ 0.559 µg/mL) and the Papp at 18 h, 500 µM [3] is reported as 8.1 ×10⁻⁶ cm/s.

In the case of `CC1(C)CCC(NC(=O)c2cc3c(Cl)cc(Cl)cc3[nH]2)CC1`, the MIC50 [4] is reported as 0.015 µM (≈ 0.00509 µg/mL).

With `NNC(=O)c1ccncc1` [ISONIAZID] the MIC50 [4] was 1.8 µM (≈ 0.247 µg/mL), the MIC90 [4] was 3.8 µM (≈ 0.521 µg/mL) and the MBC [5] was 3.2 µM (≈ 0.439 µg/mL).

For `FC(F)(F)c1ccc2cc(CNC3CCCCCCC3)[nH]c2c1`, the solubility at 24 h, 100 µM [1] was 31 µM (≈ 10.1 µg/mL), the Papp at 18 h, 500 µM [3] was 13.4 ×10⁻⁶ cm/s and the MIC50 [4] was 0.05 µM (≈ 0.0162 µg/mL). The MIC90 [4] was 0.13 µM (≈ 0.0422 µg/mL), the MBC [5] was 0.63 µM (≈ 0.204 µg/mL) and the IC50 at 48 h [6] was 22 µM. For the same molecule, the selectivity ratio [7] was 366, the selectivity ratio [8] was 550 and the half-life at 200 µM [9] was 8.2 min. It also gave a Ratio [10] of 5, a Ratio [11] of 5 and a Ratio [12] of 5. The Ratio [13] was 5, the Ratio [14] was 5 and the Ratio [15] was 5. The Ratio [16] was 5, the Ratio [17] was 5 and the Activity [2] was “inactive”.

With `C[C@@H]1[C@H]2C[C@@H](C[C@H]1NC(=O)c1cc3c(F)cc(F)cc3[nH]1)C2(C)C` the MIC90 [4] was 0.012 µM (≈ 0.00399 µg/mL).
